Reference: US8394969B2, “Cyclic benzimidazole derivatives useful as anti-diabetic agents” (Merck Sharp & Dohme Corp., priority 2008, dated 2013)
Where a name gives a salt, the structure may show the parent alone.

biological target: recombinant human AMPK complex 1 (containing α1β1γ1) (Homo sapiens, UniProt Q13131+Q9Y478); experiment: […] (in vitro AMPK activation assay); format: biochemical; conditions: read-out: % Maximum AMP Activation of human AMPK Complex 1
Sequence (Q13131 whole entry): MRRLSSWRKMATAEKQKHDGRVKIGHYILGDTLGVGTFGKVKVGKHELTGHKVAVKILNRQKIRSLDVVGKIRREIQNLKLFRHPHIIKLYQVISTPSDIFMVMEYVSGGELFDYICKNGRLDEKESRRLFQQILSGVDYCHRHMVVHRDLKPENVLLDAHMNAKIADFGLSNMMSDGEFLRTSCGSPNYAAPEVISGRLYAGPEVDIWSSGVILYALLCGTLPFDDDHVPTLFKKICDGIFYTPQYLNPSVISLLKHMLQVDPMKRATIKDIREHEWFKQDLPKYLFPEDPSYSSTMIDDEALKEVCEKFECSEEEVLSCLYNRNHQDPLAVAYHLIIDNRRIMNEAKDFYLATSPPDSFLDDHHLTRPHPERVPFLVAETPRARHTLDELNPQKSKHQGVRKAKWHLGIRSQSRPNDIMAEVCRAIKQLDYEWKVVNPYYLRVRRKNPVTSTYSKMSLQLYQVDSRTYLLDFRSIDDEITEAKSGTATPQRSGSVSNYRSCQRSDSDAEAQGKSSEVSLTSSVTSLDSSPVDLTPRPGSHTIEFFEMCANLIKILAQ
Sequence (Q9Y478 whole entry): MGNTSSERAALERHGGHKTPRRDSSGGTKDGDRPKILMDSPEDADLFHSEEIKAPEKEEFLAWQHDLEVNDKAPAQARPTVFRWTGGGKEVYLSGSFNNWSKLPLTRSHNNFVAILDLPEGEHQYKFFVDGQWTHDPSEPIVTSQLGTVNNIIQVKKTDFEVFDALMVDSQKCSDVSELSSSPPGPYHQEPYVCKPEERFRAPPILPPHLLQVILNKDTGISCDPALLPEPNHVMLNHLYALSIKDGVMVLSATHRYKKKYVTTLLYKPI
Sequence (P54619 whole entry partner): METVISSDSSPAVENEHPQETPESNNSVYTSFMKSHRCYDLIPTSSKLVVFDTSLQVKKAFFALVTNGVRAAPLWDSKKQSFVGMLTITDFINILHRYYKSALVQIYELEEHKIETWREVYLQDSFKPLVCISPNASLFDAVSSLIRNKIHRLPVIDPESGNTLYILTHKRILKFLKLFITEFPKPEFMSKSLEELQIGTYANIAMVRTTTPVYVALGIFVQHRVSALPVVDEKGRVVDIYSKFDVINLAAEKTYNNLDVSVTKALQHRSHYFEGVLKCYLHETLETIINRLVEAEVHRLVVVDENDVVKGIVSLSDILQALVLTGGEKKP

SMILES	Emax [%]
Cc1ccc(Oc2nc3cc(-c4ccc5c(ccn5C(C)C)c4)c(Cl)cc3[nH]2)cc1C(=O)O [Example 253, 5-[6-Chloro-5-(1-isopropyl-1H-indol-5-yl)-1H-benzoimidazol-2-yloxy]-2-methyl-benzoic acid]	> 80

same assay, conditions: recombinant human AMPK complex 1 (α1β1γ1); basal activity subtracted; read-out: % Maximum AMP Activation of human AMPK Complex 1

SMILES	Emax [%]
Cc1ccc(Oc2nc3cc(-c4ccc5c(c4)CCNC5=O)c(Cl)cc3[nH]2)cc1C(=O)O [Example 237, 5-[6-Chloro-5-(1-oxo-1,2,3,4-tetrahydro-isoquinolin-6-yl)-1H-benzoimidazol-2-yloxy]-2-methyl-benzoic acid]	> 80
Cc1ccc(Oc2nc3cc(-c4ccc5ccnc(O)c5c4)c(Cl)cc3[nH]2)cc1C(=O)O [Example 238, 5-[6-Chloro-5-(1-hydroxy-isoquinolin-7-yl)-1H-benzoimidazol-2-yloxy]-2-methyl-benzoic acid]	> 80
Cc1ccc(Oc2nc3cc(-c4ccc(C(C)(C)C#N)cc4)c(Cl)cc3[nH]2)cc1C(=O)O [Example 239, 5-{6-Chloro-5-[4-(cyano-dimethyl-methyl)-phenyl]-1H-benzoimidazol-2-yloxy}-2-methyl-benzoic acid]	> 80
Cc1ccc(Oc2nc3cc(-c4ccc5c(C)n[nH]c5c4)c(Cl)cc3[nH]2)cc1C(=O)O [Example 240, 5-[6-Chloro-5-(3-methyl-1H-indazol-6-yl)-1H-benzoimidazol-2-yloxy]-2-methyl-benzoic acid]	> 80
Cc1ccc(Oc2nc3cc(-c4ccc(C(=O)N(C)C)cc4)c(Cl)cc3[nH]2)cc1C(=O)O [Example 241, 5-[6-Chloro-5-(4-dimethylcarbamoyl-phenyl)-1H-benzoimidazol-2-yloxy]-2-methyl-benzoic acid]	> 80
Cc1ccc(Oc2nc3cc(-c4ccc(C(N)=O)cc4)c(Cl)cc3[nH]2)cc1C(=O)O [Example 242, 5-[5-(4-Carbamoyl-phenyl)-6-chloro-1H-benzoimidazol-2-yloxy]-2-methyl-benzoic acid]	> 80
Cn1ccc2cc(-c3cc4nc(Oc5ccc(CC(=O)O)cc5)[nH]c4cc3Cl)ccc21 [Example 243, {4-[6-Chloro-5-(1-methyl-1H-indol-5-yl)-1H-benzoimidazol-2-yloxy]-phenyl}-acetic acid]	> 80
CN1CCOc2cc(-c3cc4nc(Oc5ccc(CC(=O)O)cc5)[nH]c4cc3Cl)ccc21 [Example 244, {4-[6-Chloro-5-(4-methyl-3,4-dihydro-2H-benzo[1,4]oxazin-7-yl)-1H-benzoimidazol-2-yloxy]-phenyl}-acetic acid]	> 80
COc1ccc2cc(-c3cc4nc(Oc5ccc(CC(=O)O)cc5)[nH]c4cc3Cl)ccc2c1 [Example 245, {4-[6-Chloro-5-(6-methoxy-naphthalen-2-yl)-1H-benzoimidazol-2-yloxy]-phenyl}-acetic acid]	> 80
Cc1ccc(Oc2nc3cc(-c4ccc(-c5ccn[nH]5)cc4)c(F)cc3[nH]2)cc1C(=O)O [Example 246, 5-{6-Fluoro-5-[4-(2H-pyrazol-3-yl)-phenyl]-1H-benzoimidazol-2-yloxy}-2-methyl-benzoic acid]	> 80
Cc1ccc(Oc2nc3cc(-c4ccc(N5CCOCC5)cc4)c(F)cc3[nH]2)cc1C(=O)O [Example 247, 5-[6-Fluoro-5-(4-morpholin-4-yl-phenyl)-1H-benzoimidazol-2-yloxy]-2-methyl-benzoic acid]	> 80
Cc1ccc(Oc2nc3cc(-c4ccc5c(ccn5C)c4)c(F)cc3[nH]2)cc1C(=O)O [Example 249, 5-[6-Fluoro-5-(1-methyl-1H-indol-5-yl)-1H-benzoimidazol-2-yloxy]-2-methyl-benzoic acid]	> 80
Cc1ccc(Oc2nc3cc(-c4cnc(N5CCCC5)cn4)c(F)cc3[nH]2)cc1C(=O)O [Example 250, 5-[6-Fluoro-5-(5-pyrrolidin-1-yl-pyrazin-2-yl)-1H-benzoimidazol-2-yloxy]-2-methyl-benzoic acid]	> 80
Cc1ccc(Oc2nc3cc(-c4ccc5c(ccn5CC5CC5)c4)c(Cl)cc3[nH]2)cc1C(=O)O [Example 252, 5-[6-Chloro-5-(1-cyclopropylmethyl-1H-indol-5-yl)-1H-benzoimidazol-2-yloxy]-2-methyl-benzoic acid]	> 80
CCn1ccc2cc(-c3cc4nc(Oc5ccc(C)c(C(=O)O)c5)[nH]c4cc3Cl)ccc21 [Example 254, 5-[6-Chloro-5-(1-ethyl-1H-indol-5-yl)-1H-benzoimidazol-2-yloxy]-2-methyl-benzoic acid]	> 80
COc1cc(-c2cc3nc(Oc4ccc(C)c(C(=O)O)c4)[nH]c3cc2Cl)ccc1O [Example 255, 2-(3-carboxy-4-methylphenoxy)-6-chloro-5-(4-hydroxy-3-methoxyphenyl)-1H-3,1-benzimidazol-3-ium trifluoroacetate]	> 80
Cc1ccc(Oc2nc3cc(-c4cnc(N5CCCC5)nc4)c(Cl)cc3[nH]2)cc1C(=O)O [Example 257, 2-(3-carboxy-4-methylphenoxy)-6-chloro-5-(2-pyrrolidin-1-yl-pyrimidin-5-yl)-1H-3,1-benzimidazol-3-ium trifluoroacetate]	> 80

SMILES	Emax [%]
Cc1ccc(Oc2nc3cc(-c4ccc(C5CCCC5)cc4)c(Cl)cc3[nH]2)cc1C(=O)O [Example 258, 2-(3-carboxy-4-methylphenoxy)-6-chloro-5-(4-cyclopentylphenyl)-1H-3,1-benzimidazol-3-ium trifluoroacetate]	> 80
COc1ccc(-c2cc3nc(Oc4ccc(C)c(C(=O)O)c4)[nH]c3cc2Cl)cc1OC [Example 260, 2-(3-carboxy-4-methylphenoxy)-6-chloro-5-(3,4-dimethoxyphenyl)-1H-3,1-benzimidazol-3-ium trifluoroacetate]	> 80
Cc1cc2cc(-c3cc4nc(Oc5ccc(C)c(C(=O)O)c5)[nH]c4cc3Cl)ccc2[nH]1 [Example 261, 5-{[6-chloro-5-(2-methyl-1H-indol-5-yl)-1H-benzimidazol-2-yl]oxy}-2-methylbenzoic acid]	> 80
Cc1ccc(Oc2nc3cc(-c4ccc5c(ccn5CCO)c4)c(Cl)cc3[nH]2)cc1C(=O)O [Example 263, 5-({6-chloro-5-[1-(2-hydroxyethyl)-1H-indol-5-yl]-1H-benzimidazol-2-yl}oxy)-2-methylbenzoic acid]	> 80
Cc1ccc(Oc2nc3cc(-c4ccc(C5(O)CC5)cc4)c(Cl)cc3[nH]2)cc1C(=O)O [Example 264, 5-{6-Chloro-5-[4-(1-hydroxy-cyclopropyl)-phenyl]-1H-benzoimidazol-2-yloxy}-2-methyl-benzoic acid]	> 80
Cc1ccc(Oc2nc3cc(-c4ccc5c(C)noc5c4)c(Cl)cc3[nH]2)cc1C(=O)O [Example 265, 5-[6-chloro-5-(3-methyl-benzo[d]isoxazol-6-yl)-1H-benzoimidazol-2-yloxy]-2-methyl-benzoic acid]	> 80
Cc1ccc(Oc2nc3cc(-c4ccc5c(c4)CCC5=O)c(Cl)cc3[nH]2)cc1C(=O)O [Example 266, 5-[6-Chloro-5-(1-oxo-indan-5-yl)-1H-benzoimidazol-2-yloxy]-2-methyl-benzoic acid]	> 80
Cc1ccc(Oc2nc3cc(-c4ccc(C5CC5)c(N(C)C)c4)c(Cl)cc3[nH]2)cc1C(=O)O [Example 267, 5-[6-Chloro-5-(4-cyclopropyl-3-dimethylamino-phenyl)-1H-benzoimidazol-2-yloxy]-2-methyl-benzoic acid]	> 80
Cc1ccc(Oc2nc3cc(-c4ccc(C(C)C)c5c4CCN5C)c(Cl)cc3[nH]2)cc1C(=O)O [Example 268, 5-[6-Chloro-5-(7-isopropyl-1-methyl-2,3-dihydro-1H-indol-4-yl)-1H-benzoimidazol-2-yloxy]-2-methyl-benzoic acid]	> 80
COC(=O)c1ccc(-c2cc3nc(Oc4ccc(C)c(C(=O)O)c4)[nH]c3cc2Cl)c2ccn(C)c12 [Example 269, 4-[2-(3-Carboxy-4-methyl-phenoxy)-6-chloro-1H-benzoimidazol-5-yl]-1-methyl-1H-indole-7-carboxylic acid methyl ester]	> 80
Cc1ccc(Oc2nc3cc(-c4ccc(C(=O)O)c5c4c(C)cn5C)c(Cl)cc3[nH]2)cc1C(=O)O [Example 270, 4-[2-(3-Carboxy-4-methyl-phenoxy)-6-chloro-1H-benzoimidazol-5-yl]-1,3-dimethyl-1H-indole-7-carboxylic acid]	> 80
Cc1ccc(Oc2nc3cc(-c4ccc(C(=O)O)c5c4ccn5C)c(Cl)cc3[nH]2)cc1C(=O)O [Example 271, 4-[2-(3-Carboxy-4-meihyl-phenoxy)-6-chloro-1H-benzoimidazol-5-yl]-1-methyl-1H-indole-7-carboxylic acid]	> 80
Cc1ccc(Oc2nc3cc(-c4ccc(C(C)C)c5c4ccn5C)c(Cl)cc3[nH]2)cc1C(=O)O [Example 272, 5-[6-Chloro-5-(7-isopropyl-1-methyl-1H-indol-4-yl)-1H-benzoimidazol-2-yloxy]-2-methyl-benzoic acid]	> 80
Cc1ccc(Oc2nc3cc(-c4ccc(C(C)C)c5[nH]ccc45)c(Cl)cc3[nH]2)cc1C(=O)O [Example 273, 5-[6-Chloro-5-(7-isopropyl-1H-indol-4-yl)-1H-benzoimidazol-2-yloxy]-2-methyl-benzoic acid]	> 80
Cc1ccc(Oc2nc3cc(-c4ccc5c(c4)cc(CO)n5C)c(Cl)cc3[nH]2)cc1C(=O)O [Example 274, 5-[6-Chloro-5-(2-hydroxymethyl-1-methyl-1H-indol-5-yl)-1H-benzoimidazol-2-yloxy]-2-methyl-benzoic acid]	> 80
Cc1ccc(Oc2nc3cc(-c4ccc5c(c4)cc(C(=O)O)n5C)c(Cl)cc3[nH]2)cc1C(=O)O [Example 275, 5-[2-(3-Carboxy-4-methyl-phenoxy)-6-chloro-1H-benzoimidazol-5-yl]-1-methyl-1H-indole-2-carboxylic acid]	> 80

same assay, conditions: recombinant human AMPK complex 1 (α1β1γ1); read-out: EC50

SMILES	EC50 [nM]
Cc1ccc(Oc2nc3cc(-c4ccc(C5(CO)CC5)cc4)c(Cl)cc3[nH]2)cc1C(=O)O [Example 262, 5-[(6-chloro-5-{4-[1-(hydroxymethyl)cyclopropyl]phenyl}-1H-benzimidazol-2-yl)oxy]-2-methylbenzoic acid]	3
